Reference: ChEMBL document CHEMBL1255477, “In vitro properties of BAL30072, a novel siderophore sulfactam with activity against multiresistant gram-negative bacilli” (Antimicrob Agents Chemother, 2010)
In brackets after ≈: the same amount, converted by molar mass. Several values for one entry are separate records, joined by “and”; a condition that tells them apart may be missing. Equal entries are not always repeated. Activity calls are given as the source filed them. No cut-off for these calls is given here.

Columns and labels:
[1] = system: Pseudomonas aeruginosa; test: Antimicrobial activity against Pseudomonas aeruginosa BA by broth dilution method; format: functional; conditions: Pseudomonas aeruginosa, BA; read-out: MIC
[2] = system: Klebsiella pneumoniae; test: Antimicrobial activity against Klebsiella pneumoniae CRE harboring beta-lactamase KPC-2 by broth dilution method; format: functional
[3] = system: Pseudomonas aeruginosa; test: Antimicrobial activity against Pseudomonas aeruginosa 860 assessed as appearance of colony at 4 times MIC concentration; format: functional
[4] = system: Pseudomonas aeruginosa; test: microbe, parasite or virus in culture; conditions: 18S/H
Description: Antimicrobial activity against Pseudomonas aeruginosa 18S/H harboring beta-lactamase Class C by broth dilution method

[5] = system: Enterobacter cloacae; test: Antimicrobial activity against Enterobacter cloacae S9369 assessed as number of passages required for MIC to rise above 4 times original MIC; format: functional
[6] = system: Pseudomonas aeruginosa; test: microbe, parasite or virus in culture; conditions: PAO1
Description: Antimicrobial activity against Pseudomonas aeruginosa PAO1 by broth dilution method

[7] = system: Serratia marcescens; test: Antimicrobial activity against Serratia marcescens 1T9 harboring beta-lactamase Class C by broth dilution method; format: functional
[8] = system: Pseudomonas aeruginosa; test: Antimicrobial activity against mexAB-oprM, mexCD-oprJ, mexEF-oprN, mexJK, mexXY, opmH and pscC gene deficient Pseudomonas aeruginosa PAO750 by broth dilution method; format: functional
[9] = system: Pseudomonas aeruginosa; test: Antimicrobial activity against Pseudomonas aeruginosa 527 assessed as number of passages required for MIC to rise above 4 times original MIC; format: functional
[10] = system: Escherichia coli; test: Antimicrobial activity against Escherichia coli by broth dilution method; format: functional
[11] = system: Stenotrophomonas maltophilia; test: Antimicrobial activity against Stenotrophomonas maltophilia by broth dilution method; format: functional
[12] = system: Escherichia coli; test: Antimicrobial activity against Escherichia coli nmcA harboring beta-lactamase NMCA by broth dilution method; format: functional
[13] = system: Acinetobacter baumannii; test: Antimicrobial activity against Acinetobacter baumannii HPA I-16 harboring beta-lactamase OXA-27 by broth dilution method; format: functional
[14] = system: Acinetobacter junii; test: Antimicrobial activity against Acinetobacter junii 15218 assessed as appearance of colony at 4 times MIC concentration; format: functional
[15] = system: Enterobacter cloacae; test: Antimicrobial activity against Enterobacter cloacae 908R harboring beta-lactamase AmpC by broth dilution method; format: functional
[16] = system: Klebsiella oxytoca; test: Antimicrobial activity against Klebsiella oxytoca by broth dilution method; format: functional
[17] = system: Enterobacter cloacae; test: Antimicrobial activity against Enterobacter cloacae S9369 assessed as appearance of colony at 4 times MIC concentration; format: functional, organism-based
[18] = system: Escherichia coli; test: Antimicrobial activity against Escherichia coli A harboring beta-lactamase CTX-M 15 by broth dilution method; format: functional
[19] = system: Enterobacter cloacae; test: Antimicrobial activity against Enterobacter cloacae by broth dilution method; format: functional
[20] = system: Acinetobacter baumannii; test: Antimicrobial activity against Acinetobacter baumannii HPA 327009 harboring beta-lactamase OXA-25 by broth dilution method; format: functional
[21] = system: Stenotrophomonas maltophilia; test: Antimicrobial activity against Stenotrophomonas maltophilia B715 harboring beta-lactamase L1and L2 by broth dilution method; format: functional
[22] = system: Providencia stuartii; test: Antimicrobial activity against Providencia stuartii by broth dilution method; format: functional
[23] = system: Citrobacter freundii; test: Antimicrobial activity against Citrobacter freundii by broth dilution method; format: functional
[24] = system: Pseudomonas aeruginosa; test: Antimicrobial activity against mexAB-oprM protein and mexZ deficient Pseudomonas aeruginosa PAO267 by broth dilution method; format: functional
[25] = system: Acinetobacter baumannii; test: Antimicrobial activity against Acinetobacter baumannii HPA74510 assessed as appearance of colony at 4 times MIC concentration; format: functional, organism-based
[26] = system: Klebsiella pneumoniae; test: Antimicrobial activity against Klebsiella pneumoniae YC harboring beta-lactamase KPC-2,TEM-1and SHV-2 by broth dilution method; format: functional
[27] = system: Providencia rettgeri; test: Antimicrobial activity against Providencia rettgeri by broth dilution method; format: functional
[28] = system: Pseudomonas aeruginosa; test: Antimicrobial activity against mexAB-oprM protein and mexCD-oprJ deficient Pseudomonas aeruginosa PAO238 by broth dilution method; format: functional
[29] = system: Escherichia coli; test: Antimicrobial activity against Escherichia coli Libyien harboring beta-lactamase CMY-2 by broth dilution method; format: functional
[30] = system: Acinetobacter baumannii; test: Antimicrobial activity against Acinetobacter baumannii HPA 4737 harboring beta-lactamase OXA-26 by broth dilution method; format: functional
[31] = system: Acinetobacter baumannii; test: Antimicrobial activity against Acinetobacter baumannii HPA74510 harboring beta-lactamase IMP-4 by broth dilution method; format: functional
[32] = system: Pseudomonas aeruginosa; test: Antimicrobial activity against Pseudomonas aeruginosa BA(C2-107) selected after 25 ug/ml of compound exposure by broth dilution method; format: functional
[33] = system: Enterobacter cloacae; test: Antimicrobial activity against Enterobacter cloacae S4741B assessed as appearance of colony at 4 times MIC concentration; format: functional
[34] = system: Enterobacter cloacae; test: Microbicidal activity against Enterobacter cloacae S4741B selected after 4 times MIC compound exposure; format: functional
[35] = system: Pseudomonas aeruginosa; test: Antimicrobial activity against pfeA deficient Pseudomonas aeruginosa 134 by broth dilution method; format: functional
[36] = system: Pseudomonas aeruginosa; test: Antimicrobial activity against Pseudomonas aeruginosa 1973E harboring beta-lactamase PSE-1 and class C enzymes by broth dilution method; format: functional
[37] = system: Klebsiella oxytoca; test: Antimicrobial activity against Klebsiella oxytoca 1028E harboring beta-lactamase K1 by broth dilution method; format: functional
[38] = system: Proteus vulgaris; test: Antimicrobial activity against Proteus vulgaris by broth dilution method; format: functional
[39] = system: Pseudomonas aeruginosa; test: Antimicrobial activity against Pseudomonas aeruginosa BA assessed as appearance of colony at 4 times MIC concentration; format: functional
[40] = system: Serratia marcescens; test: Antimicrobial activity against Serratia marcescens S6 harboring beta-lactamase SME-1.AmpC by broth dilution method; format: functional
[41] = system: Klebsiella pneumoniae; test: Antimicrobial activity against Klebsiella pneumoniae 1338665 assessed as appearance of colony at 4 times MIC concentration; format: functional, organism-based
[42] = system: Pseudomonas aeruginosa; test: Antimicrobial activity against Pseudomonas aeruginosa HPA10586 harboring beta-lactamase VIM-1 by broth dilution method; format: functional
[43] = system: Pseudomonas aeruginosa; test: Antimicrobial activity against Pseudomonas aeruginosa BA(C1-106) selected after 25 ug/ml of compound exposure by broth dilution method; format: functional
[44] = system: Escherichia coli; test: Antimicrobial activity against Escherichia coli HB101 harboring beta-lactamase TEM-5 by broth dilution method; format: functional
[45] = system: Klebsiella pneumoniae; test: Antimicrobial activity against Klebsiella pneumoniae 1357E harboring beta-lactamase TEM-10 by broth dilution method; format: functional
[46] = system: Pseudomonas aeruginosa; test: Antimicrobial activity against Pseudomonas aeruginosa 621 assessed as appearance of colony at 4 times MIC concentration; format: functional
[47] = system: Klebsiella pneumoniae; test: Antimicrobial activity against Klebsiella pneumoniae 1338665 assessed as number of passages required for MIC to rise above 4 times original MIC; format: functional
[48] = system: Escherichia coli; test: Antimicrobial activity against Escherichia coli CF102 harboring beta-lactamase TEM-3 by broth dilution method; format: functional
[49] = system: Pseudomonas aeruginosa; test: Antimicrobial activity against Pseudomonas aeruginosa by broth dilution method; format: functional
[50] = system: Klebsiella pneumoniae; test: Antimicrobial activity against Klebsiella pneumoniae 26768WU harboring beta-lactamase SHV-5 by broth dilution method; format: functional
[51] = system: Pseudomonas aeruginosa; test: Antimicrobial activity against Pseudomonas aeruginosa BA assessed as number of passages required for MIC to rise above 4 times original MIC; format: functional
[52] = system: Pseudomonas aeruginosa; test: Antimicrobial activity against fpvA, fpvB, fptA and pirA gene deficient Pseudomonas aeruginosa 860 by broth dilution method; format: functional

`CC1(C)[C@H](NC(=O)/C(=N\OCc2cc(=O)c(O)cn2O)c2csc(N)n2)C(=O)N1OS(=O)(=O)O` (stereo in doubt) was tested, and the MIC [1] was 1 µg/mL (≈ 1.93 µM), the MIC [2] was no more than 0.06 µg/mL and the Activity [3] was 7 frequency. The MIC [4] was 2 µg/mL (≈ 3.86 µM), the Activity [5] was 8 passages and the MIC [6] was 2 µg/mL (≈ 3.86 µM). The MIC [7] was 1 µg/mL (≈ 1.93 µM), the MIC [8] was no more than 0.06 µg/mL and the Activity [9] was 9 passages. It also gave an MIC50 [10] of 1 µg/mL (≈ 1.93 µM), an MIC90 [10] greater than 32 µg/mL and an MIC50 [11] of 0.5 µg/mL (≈ 0.964 µM). It also gave an MIC90 [11] of 2 µg/mL (≈ 3.86 µM), an MIC [12] of 1 µg/mL (≈ 1.93 µM) and an MIC [13] of 0.5 µg/mL (≈ 0.964 µM). For the same compound, the Activity [14] was “Active”, the MIC [15] was 4 µg/mL (≈ 7.71 µM) and the MIC50 [16] was 0.125 µg/mL (≈ 0.241 µM). For the same compound, the MIC90 [16] was 4 µg/mL (≈ 7.71 µM), the Activity [17] was “Active” and the MIC [18] was 0.125 µg/mL (≈ 0.241 µM). It also gave an MIC50 [19] of 4 µg/mL (≈ 7.71 µM), an MIC90 [19] greater than 32 µg/mL and an MIC [20] of 4 µg/mL (≈ 7.71 µM). It also gave an MIC [21] of 0.25 µg/mL (≈ 0.482 µM), an MIC [22] of no more than 0.06 µg/mL and an MIC50 [22] of no more than 0.06 µg/mL. It also gave an MIC90 [22] of no more than 0.06 µg/mL, an MIC50 [23] of 4 µg/mL (≈ 7.71 µM) and an MIC90 [23] of 16 µg/mL (≈ 30.9 µM). The MIC [24] was no more than 0.06 µg/mL, the Activity [25] was “Active” and the MIC [26] was greater than 32 µg/mL. The MIC [27] was no more than 0.06 µg/mL, the MIC50 [27] was no more than 0.06 µg/mL and the MIC90 [27] was no more than 0.06 µg/mL. For the same compound, the MIC [28] was 0.125 µg/mL (≈ 0.241 µM), the MIC [29] was 4 µg/mL (≈ 7.71 µM) and the MIC [30] was 8 µg/mL (≈ 15.4 µM). It also gave an MIC [31] of 0.25 µg/mL (≈ 0.482 µM), an MIC [32] of 8 µg/mL (≈ 15.4 µM) and an Activity [33] of 7 frequency. For the same compound, the MBC [34] was 4 µg/mL (≈ 7.71 µM), the MIC [35] was 1 µg/mL (≈ 1.93 µM) and the MIC [36] was 4 µg/mL (≈ 7.71 µM). For the same compound, the MIC [37] was 0.5 µg/mL (≈ 0.964 µM), the MIC [38] was no more than 0.06 µg/mL and the MIC50 [38] was no more than 0.06 µg/mL. For the same compound, the MIC90 [38] was 0.25 µg/mL (≈ 0.482 µM), the Activity [39] was “Active” and the Activity ([39]; record 2) was 2.1 frequency. The MIC [40] was no more than 0.06 µg/mL, the Activity [41] was “Active” and the MIC [42] was 2 µg/mL (≈ 3.86 µM). It also gave an MIC [43] of 16 µg/mL (≈ 30.9 µM), an MIC [44] of 32 µg/mL (≈ 61.7 µM) and an MIC [45] of 4 µg/mL (≈ 7.71 µM). The Activity [46] was 2.8 frequency and 2.5 frequency, the Activity [47] was 9 passages and the MIC [48] was 4 µg/mL (≈ 7.71 µM). The MIC50 [49] was 2 µg/mL (≈ 3.86 µM), the MIC90 [49] was 8 µg/mL (≈ 15.4 µM) and the MIC [50] was greater than 32 µg/mL. For the same compound, the Activity [51] was 5 passages and the MIC [52] was 1 µg/mL (≈ 1.93 µM).
